Experimental data published in PMC12851007 (Angewandte Chemie (International Ed. in English), 2025).
Where a SMILES comes first, the peptide text is derived from it.

Test: CF dye efflux assay, EYPC vesicles
Format: biochemical
Details: 97 mM NaCl, pH 7.5, 25 °C, n = 1; for Y30µM, membrane activity, CF assay: 30 µM peptide, 25 µM EYPC⸧CF-LUVs (inside 50 mM CF) in 10 mM Hepes, fluorescence λexc 492/λem 517 nm, peptide at 60 s, TX-100 at 600 s, fractional activity
Source text: Time-dep endent fluores cence intensit y traces, I (t), were subsequentl y normalized to fractional intensities, If(t), using equation (1). Therein, I 0 is the intensity just before addition of peptide and I ∞ is the constant intensit y after addition of the calibration cockt ail.
IIf (tt ) = II (tt )−II0II∞ − II0 (1)
The concentration-dependent fractional intensities just before the addition of the calibration cocktail, If, were then normalized to fractional membrane activities, Y, using equation (2).
Therein, If,0 is the fractional intensit y just before addition of the calibration cocktail in absence of peptide and I f,∞ is the constant fractional intensity after addition of the calibration cocktail.
YY = IIf − IIf,0IIf,∞ − IIf,0 (2)
The fractional membrane activities, Y, were subsequently plotted against the peptide concentration, c, and analysed using the Hill equation (3) to obtain the effective molar concentration, EC50, and the Hill coefficient, n. Y0 and Y ma x are the fractional membrane activities in absen ce o f p eptide and at max imal peptide concent rations. For peptides with too little activity to determine Y ma x ex perimentall y, Y max was fixed at 1.0 during fitting.
YY = YY0 + YYmax − YY0nn (3)
Vesicle preparation. 100 µ L of a solution of 25 mg/ml of POPC in chloroform or 200 µ L of a solution of 25 mg/ml of EYPC in chloroform was purged with a stream of nitrogen and dried overnight under high vacuum. The thin lipid film was reh ydrated with 1ml of reh yd ration buffer (= inside buffer, see Table S3 ) b y agitation at room temperature for 30 min and then subjected to 5 freeze- thaw cycles (freezing in liquid nitrogen and thawing at 40 °C).
Subsequently, the liposome suspension was extruded ≥ 15 times through a polycarbonate membrane (pore size 100 nm). Extravesicular components were then removed by size exclusion chromatography using a 1.5 × 12 cm polyprop ylene column (Bio- Rad, German y) with 1.0 g Sephad ex G-50 (medium) as a stationa r y ph ase and the resp ectiv e outside buffer for […]
Ta b l e S 3. Combinations of inside and outside buffer for CF -LUVs.
No. Lipid Inside buffer = rehydration buffer Outside buffer
(1) EYPC 10 mM Hepes, 50 mM CF, pH 7.5 10 mM Hepes, 97 mM NaCl, pH 7.5
(2) POPC 10 mM Hepes, 50 mM CF, pH 7.5 10 mM Hepes, 97 mM NaCl, pH 7.5
(3) POPC 10 mM Hepes, 50 mM CF, pH 7.5 10 mM Hepes, 175 mM glucose, pH 7.5 [a] [a] Glucose b uffers (183 mOsm/L at 25 °C) were used within one week after preparation.
Vesicle quality control. The size distribution of the liposomes was confirmed by DLS to be unimodal and avera ge ve sicles diameters wer e in the ran ge from 115 to 130 nm. The final lipid content in the liposome s uspension after prep ar ation and sep aration w as det ermined b y NMR. CF vesicles are comparabl y leak y and cont ain minor amounts of ex travesi cular CF after a f ew days. When the fluores cence chan ge after vesicl e lys is b y addition of 20 µ L 1.6% (wt/vol) TX-100 was less than a factor of four, the vesicle suspension was no longer used.
Assay protocol. An appropriate volume of the liposome stock solutions was diluted to 2 mL with outside buffer in a 10 ×10 mm quartz glass cuvette to afford a phospholipid concentration of 25 µM. […] Subsequentl y, the time-dependent change in fluorescence intensity (C F: λ exc = 492 nm, λ em = 517 nm) was recorded during addition of 20 µL peptide stock solution of var ying concentrations at 60 s and 20µ L of a calibration cocktail (1. 6% […]

[1] = 25 µM lipid, EYPC⊃CF-LUVs, 10 mM Hepes, fractional activity at 590 s, Hill fit, error = SD of fit

SMILES	Y30µM, membrane activity, CF assay	EC50, CF assay, EYPC [1]	EC50 [1] [µM]
CC(C)C[C@H](NC(=O)[C@H](CC(C)C)NC(=O)[C@H](CCCNC(=N)N)NC(=O)[C@@H](N)CC(C)C)C(=O)N[C@@H](CCCNC(=N)N)C(=O)N[C@@H](Cc1c[nH]c2ccccc12)C(N)=O [LRLLRW] (H-LRLLRW-NH2)	0.23		
CC[C@H](C)[C@H](NC(=O)[C@H](CCCCN)NC(=O)[C@@H](NC(=O)[C@@H](N)CCC(N)=O)[C@@H](C)CC)C(=O)N[C@@H](Cc1c[nH]c2ccccc12)C(=O)N[C@@H](Cc1ccccc1)C(=O)N[C@@H](CCC(N)=O)C(=O)N[C@@H](CC(N)=O)C(=O)N[C@@H](CCCNC(=N)N)C(=O)N[C@@H](CCCNC(=N)N)C(=O)N[C@@H](CCSC)C(=O)N[C@@H](CCCCN)C(=O)N[C@@H](Cc1c[nH]c2ccccc12)C(=O)N[C@@H](CCCCN)C(=O)N[C@@H](CCCCN)C(=O)O (H-QIKIWFQNRRMKWKK-OH)	0.14	too low to determine	
CC(C)[C@H](NC(=O)[C@H](CCCCN)NC(=O)[C@H](CCCNC(=N)N)NC(=O)[C@H](CCCCN)NC(=O)[C@H](CCCCN)NC(=O)[C@H](CCCCN)NC(=O)[C@@H]1CCCN1C(=O)[C@H](CCC(N)=O)NC(=O)[C@H](CO)NC(=O)[C@H](Cc1c[nH]c2ccccc12)NC(=O)[C@H](CC(=O)O)NC(=O)[C@@H](NC(=O)[C@H](Cc1c[nH]c2ccccc12)NC(=O)[C@H](Cc1c[nH]c2ccccc12)NC(=O)[C@@H](NC(=O)[C@H](CC(=O)O)NC(=O)[C@H](Cc1c[nH]c2ccccc12)NC(=O)[C@H](Cc1c[nH]c2ccccc12)NC(=O)[C@@H](NC(=O)[C@H](CC(=O)O)NC(=O)[C@@H](N)CCCCN)[C@@H](C)O)[C@@H](C)O)[C@@H](C)O)C(=O)O [Pep‐1] (H-KDTWWDTWWTDWSQPKKKRKV-OH)	0.46		35 ± 1
